Test results taken from PMC5861220, “The Cytochrome P450-Mediated Metabolism Alternation of Four Effective Lignans From Schisandra chinensis in Carbon Tetrachloride-Intoxicated Rats and Patients With Advanced Hepatocellular Carcinoma” (Frontiers in Pharmacology, 2018).
Like-named read-outs stand apart in the source and are kept apart here.

Columns and labels:
[1] = Pharmacokinetics of four lignans in rats after oral SC alcoholic extract; assay type: in vivo, rat; settings: for AUC(0-t) / Cmax / half-life / CL/F / MRT last / Tmax: Sprague-Dawley, rat, plasma, po, 1.5 g/kg/day, oral SC alcoholic extract 1.5 g/kg/day for 4 days, n = 5; for CL/F: read-out: CLz/F (converted); for MRT last: read-out: MRT(0−t); for Tmax: read-out: Tmax
Description: The pharmacokinetic profiles of four lignans were studied in ALI rat after multiple oral administrations of SC alcoholic extract at dose of 1.5 g/kg/day. After the ALI rat was established, SC alcoholic extract suspended in 0.5% sodium carboxymethyl cellulose was given to ALI rats and the control via oral gavage once a day for 4 consecutive days. Before the last dosing, rats were fasted for 12 h while water was taken freely. Blood samples were collected at 0, 0.25, 0.5, 1, 2, 3, 4, 6, 8, 12, 24, 36, and 48 h after the last dosing. A cannula was surgically placed into the jugular vein for collection of blood samples (about 0.1 mL) and blood loss compensation using sterile isotonic saline in the pharmacokinetic study. Plasma was separated by centrifugation and stored at −20°C until analysis. Plasma concentrations of the four lignans were quantified using HPLC-MS analysis developed according to the reported method (Wang et al., [2008]).
Data fitting and pharmacokinetic parameter calculations were carried out using the Winnolin software. Non-compartmental analysis was used to calculate the pharmacokinetic parameters. Parameters, such as AUC and MRT, were calculated using statistical moment method.

[2] = Identification of CYP450 isozymes in lignan metabolism, human liver microsomes (no inhibitor); assay type: in vitro ADME; settings: human liver microsomes 0.5 mg/mL, 5 μM, Control (no inhibitor)
Description: (§1) The CYP450s involved in the metabolism of schisandrin, schisantherin A, deoxyshisandrin and γ-schisandrin in rat or human liver microsomes were confirmed by comparison of the metabolism ratio before and after the addition of selective inhibitors to CYP450 isozymes. […] The supernate was injected to HPLC-MS for analysis of the four lignans.

CYP3A4/5 = assay: Lignan metabolism in human liver microsomes with ketoconazole; assay type: in vitro ADME; settings: 5 μM
Description: as §1

[3] = test system: rat intestine (jejunum segment); assay: In situ intestinal perfusion of four lignans; assay type: in vivo; settings: for Perfusate (Percent of the initial dose) / Plasma (Percent of the initial dose) / Intestine (Percent of the initial dose) / Pblood / Plumen: 50 μM, n = 3; for Perfusate (Percent of the initial dose): intestinal perfusion 60 min; for Plasma (Percent of the initial dose) / Intestine (Percent of the initial dose) / Rise of cumulative plasma amount: intestinal perfusion; for Plasma (Percent of the initial dose): mesenteric vein blood; for Increase of remaining amount in perfusate: intestinal autoperfusion (60 min), CCl4-treated rats vs control; for Rise of cumulative plasma amount: CCl4-intoxicated rats vs control
Description: The surgical procedures of intestinal perfusion were conducted according to those published reports (Savina et al., [1981]). Hank's balanced salt solution (HBSS, pH 7.4) with four schisandra lignans (50 μM) at 37°C was infused into the jejunum segment at rate of 0.3 mL/min. Phenol Red (50 μM) was added to serve as a nonabsorbable marker for measuring water flux. Blood samples from mesenteric vein and perfusate were collected at 5-min interval. The plasma separated by centrifugation and perfusate was stored at −20°C until HPLC-MS analysis.
The permeability of four lignans across the rat intestine was calculated based on the disappearance of parent drug from the lumen (Plumen) as well as the appearance of the drug in blood (Pblood) using the following equations (Singhal et al., [1998]):
(1) Plumen = −Q/2πrlLnCout/Cin
(1) Pblood = ΔMB/Δt/2πrl{C}
where r is the radius of the perfused intestinal lumen; l is the length of the segment; Q is the flow rate of perfusate; Cin is the concentration of drug at the start of perfusion; and Cout is the steady-state concentration of drug exiting the lumen. ΔMB/Δt is the rate of drug appearance in mesenteric blood; and {C} is the logarithmic mean concentration of drug in the lumen.

[4] = Identification of CYP450 isozymes in lignan metabolism, rat liver microsomes (no inhibitor / overall); assay type: in vitro ADME; settings: for Metabolism rate: rat liver microsomes 1 mg/mL, 5 μM, Control (no inhibitor); for CYP450 isozymes participated in the metabolism (≥20% inhibition): rat liver microsomes incubation with selective inhibitors
Description: as §1

[5] = In situ hepatic perfusion of four lignans; assay type: in vivo, rat; settings: Sprague-Dawley, rat, perfusate, perfusate AUC(0−1h), n = 3
Description: (§2) In situ liver perfusion was performed similarly as the method described previously (Uraki et al., [2016]). […] The perfusate consisted of Krebs–Hensleit buffer (pH 7.4) containing sodium taurocholate (4.75 mg/L), 1% bovine serum albumin, and glucose (1.2 g/L) was oxygenated using carbogen, 95% O2/5% CO2. The perfusate at 37°C was infused into the portal vein at a flow rate of 30 mL/min in a recirculatory manner. After 10-min equilibration, four schisandra lignans were added to the reservoir (final concentration of 10 μM). Perfusate (0.5 mL) and bile samples were collected at 0, 10, 20, 30, 40, 50, and 60 min after the addition of lignans. The same volume of blank perfusion buffer was immediately added to the reservoir after collection of the perfusate samples. After hepatic perfusion, rat was sacrificed and liver was removed, blotted dry, and weighed.

rat liver = assay: In situ hepatic perfusion of four lignans; assay type: in vivo; settings: hepatic perfusion 60 min, 10 μM, n = 3
Description: as §2

[6] = Transport across Caco-2 cell monolayer; assay type: in vitro ADME; settings: human, Caco-2; for efflux ratio at 2 h, 5 μM / efflux ratio at 2 h, 10 μM / efflux ratio at 2 h, 50 μM: ER = Papp (BL → AP)/Papp(AP → BL)

In the case of `COc1cc2c(c(OC)c1OC)-c1c(cc(OC)c(OC)c1OC)C[C@H](C)[C@@H](C)C2` [Deoxyshisandrin, deoxyshisandrin], the “Reduction of systemic clearance (CLz/F)” value ([1]; CCl4 intoxicated rats vs control rats) is reported as roughly 56%, the AUC(0-t) ([1]; CCl4-intoxicated rats) is reported as 16400 ± 5020 ng·h/mL and the Cmax ([1]; CCl4-intoxicated rats) is reported as 775 ± 239 ng/mL. The half-life ([1]; CCl4-intoxicated rats) was 13.1 ± 1.78 h, the CL/F ([1]; CCl4-intoxicated rats) was 35.5 mL/min/kg and the MRT last ([1]; CCl4-intoxicated rats) was 16.4 ± 1.02 h. For the same compound, the Tmax ([1]; CCl4-intoxicated rats) was 5.8 ± 2.86 h, the AUC(0-t) ([1]; Control (normal) rats) was 7880 ± 2810 ng·h/mL and the Cmax ([1]; Control (normal) rats) was 564 ± 318 ng/mL. The half-life ([1]; Control (normal) rats) was 11.5 ± 2.08 h, the CL/F ([1]; Control (normal) rats) was 80 mL/min/kg and the MRT last ([1]; Control (normal) rats) was 11.7 ± 0.97 h. It also gave a Tmax ([1]; Control (normal) rats) of 5 ± 2.24 h, a Metabolism rate [2] of 162.5 ± 15.6 nmol/min/mg and a Metabolism rate (CYP3A4/5) of 38.2 ± 4.3 nmol/min/mg. The “Perfusate (Percent of the initial dose)” value ([3]; CCl4-intoxicated rats) was 91.77 ± 1.59% of the initial dose, the “Plasma (Percent of the initial dose)” value ([3]; CCl4-intoxicated rats) was 0.83 ± 0.06% of the initial dose and the “Intestine (Percent of the initial dose)” value ([3]; CCl4-intoxicated rats) was 1.79 ± 0.41% of the initial dose. For the same compound, the Pblood ([3]; CCl4-intoxicated rats) was 0.063 ± 0.018 × 10^−4 cm/s, the Plumen ([3]; CCl4-intoxicated rats) was 2.270 ± 0.363 × 10^−4 cm/s and the “Perfusate (Percent of the initial dose)” value ([3]; Control rats) was 81.69 ± 1.77% of the initial dose. The “Plasma (Percent of the initial dose)” value ([3]; Control rats) was 0.51 ± 0.03% of the initial dose, the “Intestine (Percent of the initial dose)” value ([3]; Control rats) was 1.69 ± 0.30% of the initial dose and the Pblood ([3]; Control rats) was 0.053 ± 0.009 × 10^−4 cm/s. For the same compound, the Plumen ([3]; Control rats) was 2.337 ± 0.211 × 10^−4 cm/s, the “Increase of remaining amount in perfusate” value [3] was “about 10%” and the “Rise of cumulative plasma amount” value [3] was roughly 63%. For the same compound, the Metabolism rate [4] was 87.5 ± 7.8 nmol/min/mg, the “CYP450 isozymes participated in the metabolism (≥20% inhibition)” value [4] was “CYP2C11, CYP2D2, CYP2E1, and CYP3A” and the AUC at 10 μM ([5]; pH 7.4, CCl4-intoxicated rats) was 3620 ± 100 ng·h/mL. For the same compound, the AUC at 10 μM ([5]; pH 7.4, Control rats) was 3090 ± 120 ng·h/mL, the “Total amount of analyte in bile” value (rat liver; CCl4-intoxicated rats) was 0.75 ± 0.07 µg and the “Total amount of analyte in liver” value (rat liver; CCl4-intoxicated rats) was 14.57 ± 2.41 µg. The “Total amount of analyte in bile” value (rat liver; Control rats) was 1.29 ± 0.30 µg, the “Total amount of analyte in liver” value (rat liver; Control rats) was 9.71 ± 1.32 µg and the Papp A→B at 2 h, 5 μM [6] was 1.17 ± 0.13 ×10⁻⁶ cm/s. It also gave a Papp B→A at 2 h, 5 μM [6] of 1.67 ± 0.14 ×10⁻⁶ cm/s, an efflux ratio at 2 h, 5 μM [6] of 1.42 and a Papp A→B at 2 h, 10 μM [6] of 1.16 ± 0.04 ×10⁻⁶ cm/s. It also gave a Papp B→A at 2 h, 10 μM [6] of 1.52 ± 0.16 ×10⁻⁶ cm/s, an efflux ratio at 2 h, 10 μM [6] of 1.31 and a Papp A→B at 2 h, 50 μM [6] of 1.24 ± 0.17 ×10⁻⁶ cm/s. For the same compound, the Papp B→A at 2 h, 50 μM [6] was 1.71 ± 0.51 ×10⁻⁶ cm/s and the efflux ratio at 2 h, 50 μM [6] was 1.38.

`COc1cc2c(c(OC)c1OC)-c1c(cc(OC)c(OC)c1OC)C[C@](C)(O)[C@@H](C)C2` [Schisandrin, schisandrin] showed an AUC(0-t) ([1]; CCl4-intoxicated rats) of 74700 ± 26300 ng·h/mL, a Cmax ([1]; CCl4-intoxicated rats) of 3980 ± 1530 ng/mL and a half-life ([1]; CCl4-intoxicated rats) of 7.74 ± 1.21 h. The CL/F ([1]; CCl4-intoxicated rats) was 6.61 mL/min/kg, the MRT last ([1]; CCl4-intoxicated rats) was 12.8 ± 0.25 h and the Tmax ([1]; CCl4-intoxicated rats) was 6.2 ± 2.05 h. The AUC(0-t) ([1]; Control (normal) rats) was 19800 ± 7490 ng·h/mL, the Cmax ([1]; Control (normal) rats) was 1370 ± 617 ng/mL and the half-life ([1]; Control (normal) rats) was 10.1 ± 4.12 h. It also gave a CL/F ([1]; Control (normal) rats) of 24.3 mL/min/kg, an MRT last ([1]; Control (normal) rats) of 11.1 ± 0.97 h and a Tmax ([1]; Control (normal) rats) of 6 h. The Metabolism rate [2] was 263.4 ± 22.5 nmol/min/mg, the Metabolism rate (CYP3A4/5) was 176.7 ± 27.6 nmol/min/mg and the “Perfusate (Percent of the initial dose)” value ([3]; CCl4-intoxicated rats) was 93.40 ± 1.05% of the initial dose. For the same compound, the “Plasma (Percent of the initial dose)” value ([3]; CCl4-intoxicated rats) was 0.84 ± 0.06% of the initial dose, the “Intestine (Percent of the initial dose)” value ([3]; CCl4-intoxicated rats) was 1.98 ± 0.13% of the initial dose and the Pblood ([3]; CCl4-intoxicated rats) was 0.063 ± 0.008 × 10^−4 cm/s. The Plumen ([3]; CCl4-intoxicated rats) was 2.420 ± 0.788 × 10^−4 cm/s, the “Perfusate (Percent of the initial dose)” value ([3]; Control rats) was 86.16 ± 1.39% of the initial dose and the “Plasma (Percent of the initial dose)” value ([3]; Control rats) was 0.44 ± 0.06% of the initial dose. For the same compound, the “Intestine (Percent of the initial dose)” value ([3]; Control rats) was 2.22 ± 0.96% of the initial dose, the Pblood ([3]; Control rats) was 0.046 ± 0.008 × 10^−4 cm/s and the Plumen ([3]; Control rats) was 2.490 ± 0.141 × 10^−4 cm/s. The “Increase of remaining amount in perfusate” value [3] was “about 10%”, the “Rise of cumulative plasma amount” value [3] was “about 91%” and the Metabolism rate [4] was 233.3 ± 35.6 nmol/min/mg. For the same compound, the “CYP450 isozymes participated in the metabolism (≥20% inhibition)” value [4] was “CYP2C6/11, CYP2E1, and CYP3A”, the AUC at 10 μM ([5]; pH 7.4, CCl4-intoxicated rats) was 3860 ± 70 ng·h/mL and the AUC at 10 μM ([5]; pH 7.4, Control rats) was 3230 ± 110 ng·h/mL. The “Total amount of analyte in bile” value (rat liver; CCl4-intoxicated rats) was 1.06 ± 0.14 µg, the “Total amount of analyte in liver” value (rat liver; CCl4-intoxicated rats) was 19.55 ± 2.07 µg and the “Total amount of analyte in bile” value (rat liver; Control rats) was 1.15 ± 0.27 µg. For the same compound, the “Total amount of analyte in liver” value (rat liver; Control rats) was 11.19 ± 1.18 µg, the Papp A→B at 2 h, 5 μM [6] was 2.15 ± 0.56 ×10⁻⁶ cm/s and the Papp B→A at 2 h, 5 μM [6] was 3.31 ± 0.59 ×10⁻⁶ cm/s. The efflux ratio at 2 h, 5 μM [6] was 1.54, the Papp A→B at 2 h, 10 μM [6] was 1.86 ± 0.17 ×10⁻⁶ cm/s and the Papp B→A at 2 h, 10 μM [6] was 2.03 ± 0.11 ×10⁻⁶ cm/s. It also gave an efflux ratio at 2 h, 10 μM [6] of 1.09, a Papp A→B at 2 h, 50 μM [6] of 1.93 ± 0.2 ×10⁻⁶ cm/s and a Papp B→A at 2 h, 50 μM [6] of 2.12 ± 0.17 ×10⁻⁶ cm/s. The efflux ratio at 2 h, 50 μM [6] was 1.1.
